# Source: PMC7949135, “Structural analysis of carbohydrate binding by the macrophage mannose receptor CD206” (The Journal of Biological Chemistry, 2021)
# Molecular target: T1, biotin-tagged CRD4 (carbohydrate-recognition domain 4 of the mannose receptor, CD206) (Homo sapiens, UniProt P22897)
# T1 construct: gene MRC1; borders from residues reported in crystals
# T1 sequence (P22897 646-779): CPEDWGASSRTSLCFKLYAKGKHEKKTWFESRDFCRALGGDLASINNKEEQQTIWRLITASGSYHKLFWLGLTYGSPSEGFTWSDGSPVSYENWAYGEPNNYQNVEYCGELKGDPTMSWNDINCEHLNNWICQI
# Assay: solid-phase competition with horseradish peroxidase, CRD4 immobilised on streptavidin plates
# Format: binding
# Details: not given
# Excerpt: solid-phase competition with horseradish peroxidase, CRD4 immobilised on streptavidin plates on biotin-tagged CRD4 (carbohydrate-recognition domain 4 of the mannose receptor, CD206)
row,Ki [µM],Compound
1,900 ± 100,CO[C@H]1O[C@H](CO)[C@@H](O)[C@H](O)[C@@H]1O [α-Methyl mannose]
2,110 ± 20,CO[C@@H]1O[C@@H](C)[C@@H](O)[C@@H](O)[C@@H]1O [αMeFuc]

# Same assay, conditions: competitive; 2.5 mM CaCl2, 150 mM NaCl, 25 mM Tris-Cl pH 7.8, 4 °C
row,Ki [µM],Compound
1,380 ± 30,OC[C@H]1O[C@H](OC[C@H]2OC(O)[C@@H](O)[C@@H](O)[C@@H]2O)[C@@H](O)[C@@H](O)[C@@H]1O (some centres unmarked) [Manα1-6Man]
2,730 ± 70,OC[C@H]1O[C@H](O[C@H]2[C@H](O)[C@H](O)C(O)O[C@@H]2CO)[C@@H](O)[C@@H](O)[C@@H]1O (some centres unmarked) [Manα1-4Man]
3,860 ± 50,OC[C@H]1O[C@H](O[C@H]2[C@H](O)[C@@H](CO)OC(O)[C@H]2O)[C@@H](O)[C@@H](O)[C@@H]1O (some centres unmarked) [Manα1-3Man]
4,480 ± 40,OC[C@H]1O[C@H](O[C@@H]2C(O)O[C@H](CO)[C@@H](O)[C@@H]2O)[C@@H](O)[C@@H](O)[C@@H]1O (some centres unmarked) [Manα1-2Man]
5,300 ± 80,OC[C@H]1O[C@H](OC[C@H]2OC(O)[C@@H](O)[C@@H](O[C@H]3O[C@H](CO)[C@@H](O)[C@H](O)[C@@H]3O)[C@@H]2O)[C@@H](O)[C@@H](O)[C@@H]1O (some centres unmarked) [Manα1-6(Manα1-3)Man]
6,23 ± 0.4,CC(=O)N[C@H]1[C@H](O[C@H]2[C@H](O)[C@@H](NC(C)=O)C(O)O[C@@H]2CO)O[C@H](CO)[C@@H](O[C@@H]2O[C@H](CO[C@H]3O[C@H](CO[C@H]4O[C@H](CO)[C@@H](O)[C@H](O)[C@@H]4O[C@H]4O[C@H](CO)[C@@H](O)[C@H](O)[C@@H]4O)[C@@H](O)[C@H](O[C@H]4O[C@H](CO)[C@@H](O)[C@H](O)[C@@H]4O[C@H]4O[C@H](CO)[C@@H](O)[C@H](O)[C@@H]4O)[C@@H]3O)[C@@H](O)[C@H](O[C@H]3O[C@H](CO)[C@@H](O)[C@H](O)[C@@H]3O[C@H]3O[C@H](CO)[C@@H](O)[C@H](O)[C@@H]3O[C@H]3O[C@H](CO)[C@@H](O)[C@H](O)[C@@H]3O)[C@@H]2O)[C@@H]1O (some centres unmarked) [Man9]
